{"source": "paper PMC5892408", "about": "“Novel dual-function near-infrared II fluorescence and PET probe for tumor delineation and image-guided surgery” (Chemical Science, 2018)", "assay": "Photostability under continuous 808 nm laser illumination", "format": "physicochemical", "details": "same conditions as CHS2; 808 nm laser illumination (82 mW cm^-2) for 1 h", "description": "Fig. 2 (a) Fluorescence emission of CHS2 under 808 nm excitation; (b) photostability of CHS2 in water, PBS and serum under 808 nm laser illumination (105 mW cm^–2) for 1 h; (c) photostability of ICG vs.CHS2 under 808 nm laser illumination (82 mW cm^–2) for 1 h; (d) cellular toxicity of different concentrations of CHS2 in U87MG cell lines."}
{"smiles": "CC1(C)C(/C=C/C=C/C=C/C=C2\\N(CCCCS(=O)(=O)O)c3ccc4ccccc4c3C2(C)C)=[N+](CCCCS(=O)(=O)[O-])c2ccc3ccccc3c21", "note": "[ICG, indocyanine green]", "values": [{"measurement": "photostability (fluorescence decay)", "value": "~50", "unit": "%"}]}
